Positions of bridges follow the written chain, without caps; N, C: chain ends. Residues, ends and D or L forms follow the SMILES beside them. Groups on a side chain read outwards from the residue. *: point of attachment. C20 diacid = O=C(O)CCCCCCCCCCCCCCCCCCC(=O)*; C18 diacid = O=C(O)CCCCCCCCCCCCCCCCC(=O)*; AEEA = NCCOCCOCC(=O)O
Target: T1, Amylin 3(a) receptor (human calcitonin receptor (CTa) with RAMP-3) (Homo sapiens, UniProt O60896+P30988)
T1 construct: expressed in transfected cells; host or cells: BHK570 (baby hamster kidney) cells, stably transfected, with CRE-luciferase reporter
T1 sequence (O60896 24-148): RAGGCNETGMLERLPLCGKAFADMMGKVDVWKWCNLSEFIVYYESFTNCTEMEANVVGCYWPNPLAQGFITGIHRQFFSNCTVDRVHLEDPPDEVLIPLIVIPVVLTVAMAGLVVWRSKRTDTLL
T1 sequence (P30988 25-474): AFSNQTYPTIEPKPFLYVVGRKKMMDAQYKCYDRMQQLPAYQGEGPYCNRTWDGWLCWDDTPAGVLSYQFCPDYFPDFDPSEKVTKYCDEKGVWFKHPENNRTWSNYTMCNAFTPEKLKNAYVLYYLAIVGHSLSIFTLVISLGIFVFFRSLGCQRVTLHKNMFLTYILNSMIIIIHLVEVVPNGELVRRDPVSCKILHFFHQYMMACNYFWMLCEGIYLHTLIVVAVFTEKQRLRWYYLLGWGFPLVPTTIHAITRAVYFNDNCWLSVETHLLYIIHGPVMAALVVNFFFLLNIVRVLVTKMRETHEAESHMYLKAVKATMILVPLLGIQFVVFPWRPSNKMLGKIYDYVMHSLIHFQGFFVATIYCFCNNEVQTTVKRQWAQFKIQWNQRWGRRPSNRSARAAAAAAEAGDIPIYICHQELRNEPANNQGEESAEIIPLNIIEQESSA
Test: Amylin luciferase assay (CRE-luciferase reporter in BHK Amylin 3(a)//CRE-luc cells)
Type: cell-based
Conditions: BHK570 cells with human calcitonin receptor (CTa), RAMP-3 and CRE-luciferase reporter; 4 hours incubation; read-out: Potency luciferase assay
Text: It has previously been published (Poyner D R et al 2002, Pharmacological Reviews 54(2) 233-246) that activation of Amylin receptors (coexpression of Calcitonin receptor and receptor activity modifying peptides RAMPs) by Amylin leads to an increase in the intracellular concentration of cAMP. Consequently, transcription is activated at promotors containing multiple copies of the cAMP response element (CRE). It is thus possible to measure Amylin activity by use of a CRE luciferase reporter gene introduced into BHK cells also expressing an Amylin receptor.
2. Construction of an Amylin 3(a)/CRE-luc Cell Line
A BHK570 cell line stably transfected with the human calcitonin receptor (CTa) and a CRE-responsive luciferase reportergene. The cell line was further transfected with RAMP-3, using standard methods. This turns the Calcitonin receptor into an Amylin 3(a) receptor. Methotrexate, Neomycin, and Hygromycin are selection markers for luciferase, the Calcitonin receptor, and RAMP-3, respectively.
3. Amylin Luciferase Assay
To perform activity assays, BHK Amylin 3(a)//CRE-luc cells were seeded in white 96 well culture plates at a density of about 20.000 cells/well. The cells were in 100 μl growth medium (DMEM with 10% FBS, 1% Pen/Strep, 1 mM Na-pyruvate, 250 nM Methotrexate, 500 μg/ml Neomycin, and 400 μg/ml Hygromycin). After incubation overnight at 37° C. and 5% CO2, the growth medium was replaced by 50 μl/well assay medium (DMEM (without phenol red), Glumamax™, 10% FBS, and 10 mM Hepes, pH 7,4). Further, 50 μl/well of standard or sample in assay buffer were added. After 4 hours incubation at 37° C. and 5% CO2, the assay medium with standard or sample were removed and replaced by 100 μl/well PBS. Further, 100 μl/well LucLite™ was added. The plates were sealed and incubated at room temperature for 30 minutes. Finally, luminescence was measured on a TopCounter (Packard) in SPC (single photon counting) mode.

Row | SMILES | EC50 [pM]
1 | CC[C@H](C)[C@H](NC(=O)[C@H](CCCCNC(=O)COCCOCCNC(=O)COCCOCCNC(=O)CCCCCCCCCCCCCCCCC(=O)O)NC(=O)CNC(=O)[C@H](Cc1ccccc1)NC(=O)[C@H](CC(N)=O)NC(=O)[C@H](CC(N)=O)NC(=O)[C@H](CO)NC(=O)[C@H](CO)NC(=O)[C@H](CCCNC(=N)N)NC(=O)[C@@H](NC(=O)[C@H](CC(C)C)NC(=O)[C@H](Cc1ccccc1)NC(=O)[C@H](CC(N)=O)NC(=O)[C@H](C)NC(=O)[C@H](CC(C)C)NC(=O)[C@H](CCCNC(=N)N)NC(=O)[C@H](CCC(N)=O)NC(=O)[C@@H](NC(=O)[C@H](C)NC(=O)[C@@H]1CSSC[C@H](NC(=O)[C@@H](N)CCCCN)C(=O)N[C@@H](CC(N)=O)C(=O)N[C@@H]([C@@H](C)O)C(=O)N[C@@H](C)C(=O)N[C@@H]([C@@H](C)O)C(=O)N1)[C@@H](C)O)C(C)C)C(=O)N[C@@H](CC(C)C)C(=O)N1CCC[C@H]1C(=O)N1CCC[C@H]1C(=O)N[C@H](C(=O)N[C@@H](CC(N)=O)C(=O)N[C@H](C(=O)NCC(=O)N[C@@H](CO)C(=O)N[C@@H](CC(N)=O)C(=O)N[C@H](C(=O)N[C@@H](Cc1ccc(O)cc1)C(N)=O)[C@@H](C)O)C(C)C)[C@@H](C)O [Example 9, N-epsilon25-(2-{2-[2-(2-{2-[2-(17-carboxyheptadecanoylamino)ethoxy]ethoxy}acetylamino)ethoxy]ethoxy}acetyl)-[Arg18,Lys25]-pramlintide (1-37)] (H-KCNTATCATQRLANFLVRSSNNFGK([AEEA-AEEA-C18 diacid])ILPPTNVGSNTY-NH2; disulfide 2-7) | 40
2 | CC[C@H](C)[C@H](NC(=O)[C@H](CCCCNC(=O)COCCOCCNC(=O)COCCOCCNC(=O)CCCCCCCCCCCCCCCCCCC(=O)O)NC(=O)CNC(=O)[C@H](Cc1ccccc1)NC(=O)[C@H](CC(N)=O)NC(=O)[C@H](CC(N)=O)NC(=O)[C@H](CO)NC(=O)[C@H](CO)NC(=O)[C@H](Cc1c[nH]cn1)NC(=O)[C@@H](NC(=O)[C@H](CC(C)C)NC(=O)[C@H](Cc1ccccc1)NC(=O)[C@H](CC(N)=O)NC(=O)[C@H](C)NC(=O)[C@H](CC(C)C)NC(=O)[C@H](CCCNC(=N)N)NC(=O)[C@H](CCC(N)=O)NC(=O)[C@@H](NC(=O)[C@H](C)NC(=O)[C@@H]1CSSC[C@H](NC(=O)[C@@H](N)CCCCN)C(=O)N[C@@H](CC(N)=O)C(=O)N[C@@H]([C@@H](C)O)C(=O)N[C@@H](C)C(=O)N[C@@H]([C@@H](C)O)C(=O)N1)[C@@H](C)O)C(C)C)C(=O)N[C@@H](CC(C)C)C(=O)N1CCC[C@H]1C(=O)N1CCC[C@H]1C(=O)N[C@H](C(=O)N[C@@H](CC(N)=O)C(=O)N[C@H](C(=O)NCC(=O)N[C@@H](CO)C(=O)N[C@@H](CC(N)=O)C(=O)N[C@H](C(=O)N[C@@H](Cc1ccc(O)cc1)C(N)=O)[C@@H](C)O)C(C)C)[C@@H](C)O [Example 10, N-epsilon25-(2-{2-[2-(2-{2-[2-(19-carboxynonadecanoylamino)ethoxy]ethoxy}acetylamino)ethoxy]ethoxy}acetyl)-[Lys25]-pramlintide (1-37)] (H-KCNTATCATQRLANFLVHSSNNFGK([AEEA-AEEA-C20 diacid])ILPPTNVGSNTY-NH2; disulfide 2-7; N-terminus and C-terminus assumed) | 60

— US20100222269A1, “IMPROVED DERIVATIVES OF AMYLIN” (priority 2007, published 2010)
